Consider 18 compounds from US12435072B2, “Compounds” (Vicore Pharma AB, priority 2019, dated 2025).

The target of series [1] is T1, human recombinant AT2 receptor (Homo sapiens, UniProt P50052).
T1 construct: purchased Eurofins ITEM26
T1 sequence (P50052 1-363): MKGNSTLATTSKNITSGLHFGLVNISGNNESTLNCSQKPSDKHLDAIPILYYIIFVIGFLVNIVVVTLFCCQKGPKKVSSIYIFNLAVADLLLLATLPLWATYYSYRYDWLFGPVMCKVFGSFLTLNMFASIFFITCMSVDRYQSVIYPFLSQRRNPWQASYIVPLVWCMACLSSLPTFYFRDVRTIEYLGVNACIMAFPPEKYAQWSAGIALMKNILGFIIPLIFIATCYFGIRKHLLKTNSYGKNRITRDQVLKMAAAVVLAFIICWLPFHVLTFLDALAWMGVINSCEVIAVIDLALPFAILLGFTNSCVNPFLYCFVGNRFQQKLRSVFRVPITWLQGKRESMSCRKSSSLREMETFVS
Nature of the series: Binding to AT2 receptor, radiometric scintillation assay (Eurofins). The settings on record: ligand 125I CGP 42112A, tested at 1, 10, 100 and 1000 nM. As to the method: Compounds were evaluated for binding to the human recombinant AT2 and AT1 receptor according to Eurofins protocol ITEM26 and ITEM24 using a radiometric scintillation assay.

Another series addresses T2, CYP2B6 (Homo sapiens, UniProt P20813).
T2 construct: incubated with human liver microsomes; tissue Eurofins ITEMG232; host or cells: human liver microsomes
T2 sequence (P20813 1-491): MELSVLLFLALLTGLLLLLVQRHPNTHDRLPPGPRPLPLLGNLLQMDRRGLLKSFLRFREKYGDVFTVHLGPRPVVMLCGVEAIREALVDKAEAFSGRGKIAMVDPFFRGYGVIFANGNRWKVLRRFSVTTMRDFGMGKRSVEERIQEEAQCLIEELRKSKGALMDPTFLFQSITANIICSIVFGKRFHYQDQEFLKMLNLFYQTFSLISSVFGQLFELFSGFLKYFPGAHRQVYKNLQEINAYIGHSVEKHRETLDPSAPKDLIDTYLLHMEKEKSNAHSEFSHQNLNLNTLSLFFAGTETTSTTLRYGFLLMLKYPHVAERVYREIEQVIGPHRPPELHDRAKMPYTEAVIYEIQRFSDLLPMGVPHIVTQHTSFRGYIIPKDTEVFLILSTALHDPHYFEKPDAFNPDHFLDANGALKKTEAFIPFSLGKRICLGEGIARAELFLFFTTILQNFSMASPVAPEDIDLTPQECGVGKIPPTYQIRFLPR
Nature of the series: CYP inhibition in human liver microsomes, CYP2B6. It counts as in vitro ADME. The settings on record: probe bupropion, substrate bupropion, read-out: CYP2B6 Inh %. As to the method: The following substrates were used: CYP1A phenacetin, CYP2B6 bupropion, CYP2C8 paclitaxel and amodiaquine, CYP2C9 diclofenac, CYP2C19 omeprazole, CYP2D6 dextromethorphan, CYP3A midazolam and testosterone. At the end of the incubation, the formation of metabolite was monitored by HPLC-MS/MS as the peak area response.
A general note: Microsomes from liver hold many membrane-bound enzymes, among them those of drug oxidation.

`Cc1nccn1Cc1ccc(-c2cc(CC(C)C)sc2S(=O)(=O)NC(=O)NCc2ccccc2)cc1` [Example 1, 1-benzyl-3-[[5-isobutyl-3-[4-[(2-methylimidazol-1-yl)methyl]phenyl]-2-thienyl]sulfonyl]urea]: the IC50 (commonly the concentration needed to halve the response being measured) in series [1] was 4 nM. The inhibition at 10 µM on CYP2B6 was determined as 19%.

As to `Cc1nccn1Cc1ccc(-c2cc(CC(C)C)sc2S(=O)(=O)NC(=O)NCc2ccccn2)cc1` [Example 2, 3-(5-isobutyl-3-{p-[(2-Methyl-1H-imidazol-1-yl)methyl]phenyl}-2-thienylsulfonyl)-1-[(2-pyridyl)methyl]urea], the IC50 in series [1] was found to be 5.5 nM. Further, the inhibition at 10 µM at CYP2B6 was 8.2%.

`CCCCNC(=O)NS(=O)(=O)c1sc(CC(C)C)cc1-c1ccc(Cn2ccnc2C)cc1` [Example 4, 1-Butyl-3-(5-isobutyl-3-{p-[(2-methyl-1H-imidazol-1-yl)methyl]phenyl}-2-thienylsulfonyl)-urea]: the IC50 in series [1] came out at 10.5 nM. For the same compound, the inhibition at 10 µM at CYP2B6 was determined as 12.7%.

Turning to `Cc1nccn1Cc1ccc(-c2cc(CC(C)C)sc2S(=O)(=O)NC(=O)NCCCC(F)(F)F)cc1` [Example 5, 3-(5-isobutyl-3-{p-[(2-Methyl-1H-imidazol-1-yl)methyl]phenyl}-2-thienylsulfonyl)-1-(4,4,4-trifluorobutyl)-urea], the IC50 in series [1] was determined as 14.8 nM. Besides, the inhibition at 10 µM on CYP2B6 turned out to be 9.6%.

For the compound `CCc1nccn1Cc1ccc(-c2cc(CC(C)C)sc2S(=O)(=O)NC(=O)NCc2ccccc2)cc1` [Example 6, 1-Benzyl-3-(3-{p-[(2-ethyl-1H-imidazol-1-yl)methyl]phenyl}-5-isobutyl-2-thienylsulfonyl)-urea], the IC50 in series [1] worked out at 3.5 nM. On CYP2B6, the inhibition at 10 µM stood at 18.1%.

Turning to `CCc1nccn1Cc1ccc(-c2cc(CC(C)C)sc2S(=O)(=O)NC(=O)NCCOC)cc1` [Example 7, 3-(3-{p-[(2-Ethyl-1H-imidazol-1-yl)methyl]phenyl}-5-isobutyl-2-thienylsulfonyl)-1-(2-methoxy-ethyl)urea], the IC50 in series [1] came out at 15.2 nM. In addition, the inhibition at 10 µM on CYP2B6 was -0.4%.

Take `Cc1nccn1Cc1ccc(-c2cc(CC(C)C)sc2S(=O)(=O)NC(=O)NCc2ccccn2)cc1F` [Example 13, 3-(3-{3-Fluoro-4-[(2-methyl-1H-imidazol-1-yl)methyl]phenyl}-5-isobutyl-2-thienylsulfonyl)-1-[(2-pyridyl)methyl]urea]: the IC50 in series [1] was 0.53 nM. Further, the inhibition at 10 µM on CYP2B6 worked out at 3%.

Turning to `Cc1nccn1Cc1ccc(-c2cc(CC(C)C)sc2S(=O)(=O)NC(=O)NCCC(F)(F)F)cc1F` [Example 14, 3-(3-{3-Fluoro-4-[(2-methyl-1H-imidazol-1-yl)methyl]phenyl}-5-isobutyl-2-thienylsulfonyl)-1-(3,3,3-trifluoropropyl)urea], in series [1], the IC50 worked out at 3.3 nM. Also, at CYP2B6, the inhibition at 10 µM worked out at 43%.

Turning to `Cc1nccn1Cc1ccc(-c2cc(CC(C)C)sc2S(=O)(=O)NC(=O)NCc2nccn2C)cc1F` [Example 15, 1-(3-{3-Fluoro-4-[(2-methyl-1H-imidazol-1-yl)methyl]phenyl}-5-isobutyl-2-thienylsulfonyl)-3-[(1-methyl-1H-imidazol-2-yl)methyl]urea], in series [1], the IC50 was determined as 4.9 nM. On CYP2B6, the inhibition at 10 µM came to 63%.

Regarding `Cc1nccn1Cc1ccc(-c2cc(CC(C)C)sc2S(=O)(=O)NC(=O)NC(C)c2ccccn2)cc1F` (stereo not drawn) [Example 25, 3-(3-{3-Fluoro-4-[(2-methyl-1H-imidazol-1-yl)methyl]phenyl}-5-isobutyl-2-thienylsulfonyl)-1-[1-(2-pyridyl)ethyl]urea], in series [1], the IC50 is 2.5 nM. For the same compound, at CYP2B6, the inhibition at 10 µM came out at 23%.

For the compound `CCc1nccn1Cc1ccc(-c2cc(CC(C)C)sc2S(=O)(=O)NC(=O)NCc2ccc(F)cc2)cc1F.O=C(O)C(F)(F)F` [Example 32, 3-[(3-{4-[(2-ethyl-1H-imidazol-1-yl)methyl]-3-fluorophenyl}-5-(2-methylpropyl)thiophen-2-yl)sulfonyl]-1-[(4-fluorophenyl)methyl] urea trifluoroacetic acid], the IC50 in series [1] worked out at 1.6 nM. Moreover, the inhibition at 10 µM at CYP2B6 was found to be 25%.

`CCCNC(=O)NS(=O)(=O)c1sc(CC(C)C)cc1-c1ccc(Cn2ccnc2CC)c(F)c1.O=C(O)C(F)(F)F` [Example 33, 1-[(3-{4-[(2-ethyl-1H-imidazol-1-yl)methyl]-3-fluorophenyl}-5-(2-methylpropyl)thiophen-2-yl)sulfonyl]-3-propylurea trifluoroacetic acid]: the IC50 in series [1] turned out to be 5.1 nM. Further, the inhibition at 10 µM at CYP2B6 is 37%.

Turning to `Cc1nccn1Cc1ccc(-c2cc(CC(C)C)sc2S(=O)(=O)NC(=O)NCc2ccc(F)c(F)c2)cc1F.O=C(O)C(F)(F)F` [Example 34, 1-[(3,4-difluorophenyl)methyl]-3-[(3-{3-fluoro-4-[(2-methyl-1H-imidazol-1-yl)methyl]phenyl}-5-(2-methylpropyl)thiophen-2-yl)sulfonyl]urea trifluoroacetic acid], the IC50 in series [1] was determined as 5.2 nM. For the same compound, on CYP2B6, the inhibition at 10 µM worked out at 57%.

Regarding `Cc1nccn1Cc1ccc(-c2cc(CC(C)C)sc2S(=O)(=O)NC(=O)NCc2cccs2)cc1F.O=C(O)C(F)(F)F` [Example 35, 1-[(3-{3-fluoro-4-[(2-methyl-1H-imidazol-1-yl)methyl]phenyl}-5-(2-methylpropyl)thiophen-2-yl)sulfonyl]-3-[(thiophen-2-yl)methyl]urea trifluoroacetic acid], in series [1], the IC50 was 0.63 nM. For the same compound, on CYP2B6, the inhibition at 10 µM is 46%.

For the compound `Cc1nccn1Cc1ccc(-c2cc(CC(C)C)sc2S(=O)(=O)NC(=O)NCc2cc(Cl)ccn2)cc1F.O=C(O)C(F)(F)F` [Example 38, 1-[(4-chloropyridin-2-yl)methyl]-3-[(3-{3-fluoro-4-[(2-methyl-1H-imidazol-1-yl)methyl]phenyl}-5-(2-methylpropyl)thiophen-2-yl)sulfonyl]urea trifluoroacetic acid], the IC50 in series [1] amounted to 16.6 nM. Moreover, on CYP2B6, the inhibition at 10 µM was 25%.

Turning to `Cc1nccn1Cc1ccc(-c2cc(CC(C)C)sc2S(=O)(=O)NC(=O)NCC(C)C)cc1F.O=C(O)C(F)(F)F` [Example 39, 1-[(3-{3-fluoro-4-[(2-methyl-1H-imidazol-1-yl)methyl]phenyl}-5-(2-methylpropyl)thiophen-2-yl)sulfonyl]-3-(2-methylpropyl)urea trifluoroacetic acid], the IC50 in series [1] stood at 8.6 nM. Also, at CYP2B6, the inhibition at 10 µM turned out to be 28%.

Take `Cc1nccn1Cc1ccc(-c2cc(CC(C)C)sc2S(=O)(=O)NC(=O)NCC2CCC(F)(F)CC2)cc1F.O=C(O)C(F)(F)F` [Example 40, 1-[(4,4-difluorocyclohexyl)methyl]-3-[(3-{3-fluoro-4-[(2-methyl-1H-imidazol-1-yl)methyl]phenyl}-5-(2-methylpropyl)thiophen-2-yl)sulfonyl]urea trifluoroacetic acid]: the IC50 in series [1] turned out to be 7.7 nM. Moreover, the inhibition at 10 µM on CYP2B6 is 54%.

For `CC(C)Cc1cc(-c2ccc(Cn3ccnc3C(C)C)c(F)c2)c(S(=O)(=O)NC(=O)NCCC(F)(F)F)s1.O=C(O)C(F)(F)F` [Example 41, 1-{[3-(3-fluoro-4-{[2-(propan-2-yl)-1H-imidazol-1-yl]methyl}phenyl)-5-(2-methylpropyl)thiophen-2-yl]sulfonyl}-3-(3,3,3-trifluoropropyl)urea trifluoroacetic acid], in series [1], the IC50 amounted to 4.9 nM. Also, the inhibition at 10 µM on CYP2B6 was 30%.
